# Patent US20150044193A1, “COMPOSITIONS AND METHODS FOR THE TREATMENT OF ALTERED a-SYNUCLEIN FUNCTION” (Neuraltus Pharmaceuticals, Inc., priority 2008, published 2015)
# “Also recorded” adds a separate entry of the source.
# What was measured:
# [1] = test system: α-synuclein; test: Western blot of α-synuclein in non-differentiated SH-SY5Y cells exposed to CBE; assay type: cell-based, human; conditions: non-differentiated neuroblastoma cells, 48 h exposure
# Description: (§1) The treatment paradigm is depicted in FIG. 1. SH-SY5Y cells were grown in Dulbecco's modified Eagle medium with 10% fetal calf serum, 2 mM glutamine, and were subcultured 1:5 with TrypLE (GIBCO/Invitrogen; Carlsbad, Calif.) using standard tissue culture techniques. The cells were differentiated in neurobasal media supplemented with B-27 and 40 μM retinoic acid for 7 days (Pahlman et al., 1984). Cells were exposed to CBE at doses of 0, 12.5, 25, 50, 100 or 200 μM in dimethyl sulfoxide (DMSO; Sigma Chemicals; St. Louis, Mo.) for 48 h at 37° C. At this time, cultures were washed with HBSS and trypsinized for 10 min followed by centrifugation at 1,000×g for 10 min to pellet cells. Media was removed, and cells were lysed in 10 mM Tris/1 mM EDTA/protease inhibitor cocktail (1:1000; Sigma) by sonication. Samples were centrifuged at 1,000×g for 10 min; the supernatant fraction was decanted from particulate fraction. Following determination of protein concentration using the BCA protein assay (Pierce Chemicals, Rockford, Ill.), samples were frozen until used for Western blot analysis experiments.
# To test determine if the inhibition of GCase would elicit changes in cellular α-synuclein level, the protein levels were evaluated by using Western blot analysis in non-differentiated SH-SY5Y cells and cells differentiated to the neuronal phenotype, at 48 h following exposure to CBE. […]
# [2] = test system: α-synuclein; test: Western blot of α-synuclein in ventral mesencephalon fractions of CBE-treated mice; assay type: in vivo, C57BL/6 mice; conditions: single i.p. 200 mg/kg, 48 h
# Description: (§2) The administration paradigm is depicted in FIG. 2. Mice (C57BL/6) were maintained on a 12 h light-dark cycle and given food and drinking water ad libitum. All animal procedures and care methods were approved by the Institutional Animal Care and Usage Committee. In experiments to test the effects of CBE on α-synuclein protein, C57BL/6 male mice, aged 8 weeks, were used as previously described with some modifications (Kanfer et al., 1975, Adachi and Volk, 1977, Kanfer et al., 1982). Mice (n=8/group) received a single i. p. injection of 200 mg/kg CBE (Sigma) in DMSO or the vehicle alone and killed 2 days after injection. For Western blot analyses, brains were removed, dissected on ice and frozen on dry ice until needed (Manning-Bog et al., 2002, Purisai et al., 2005). For experiments utilizing immunohistochemistry, brains were immersion fixed in 4% paraformaldehyde and successively cryoprotected in 10 and 30% sucrose over the course of 72 h (Manning-Bog et al., 2002, Manning-Bog et al., 2003). Brains were sectioned at 40-μm intervals and stored in cryopreservative solution at −20° C. until needed.
# Fractions from ventral mesencephalon separated by the centrifugation were utilized for immunoblotting experiments. Following homogenization in 10 mM Tris/1 mM EDTA/protease inhibitor cocktail (1:1000; Sigma, St. Louis, Mo.) by sonication, samples were centrifuged at 1,000×g for […]. The supernatant fraction (S1) was decanted and stored, and the pellet fraction containing nuclei and large membrane fragments were reconstituted in homogenization buffer (P1 fraction). The protein concentration was measured. […]
# C57BL/6 mice were exposed to a single injection of CBE and assessed for changes in α-synuclein at 48 h to determine whether diminished GCase activity is associated with alterations in the protein in vivo, specifically within the substantia nigra. […] In tissue homogenates from ventral mesencephalon of CBE vs. DMSO (vehicle)-treated mice, α-synuclein immunoreactivity was assessed by Western blot analysis.
# [3] = test system: α-synuclein; test: α-synuclein in substantia nigra of aged mice treated sub-chronically with CBE; assay type: in vivo; conditions: sub-chronic CBE vs. DMSO
# Text: It is likely that sustained glucocerebrosidase inhibition promotes increased levels of the α-synuclein expression protein.
# [4] = test system: SH-SY5Y cells; test: Overt toxicity in SH-SY5Y cells treated with GCase inhibitor; assay type: cell-based, human; conditions: SH-SY5Y cells treated with CBE
# [5] = test system: nigral neurons; test: Silver grain accumulation (degenerating neurons) in substantia nigra of CBE-treated mice; assay type: in vivo; conditions: CBE- vs. DMSO-treated mice
# [6] = test system: α-synuclein; test: Western blot of α-synuclein in differentiated SH-SY5Y cells exposed to CBE; assay type: cell-based, human
# Description: as §1
# Fractions from ventral mesencephalon separated by the centrifugation were utilized for immunoblotting experiments. Following homogenization in 10 mM Tris/1 mM EDTA/protease inhibitor cocktail (1:1000; Sigma, St. Louis, Mo.) by sonication, samples were centrifuged at 1,000×g for […]. The supernatant fraction (S1) was decanted and stored, and the pellet fraction containing nuclei and large membrane fragments were reconstituted in homogenization buffer (P1 fraction). The protein concentration was measured. After proteins were separated by SDS-PAGE and transferred to nitrocellulose, the blots were blocked and incubated overnight at 4° C. with anti-α-synuclein (Signet; Novus Biologicals, Littleton, Colo.; Abcam, Cambridge, Mass.; Santa Cruz Biotechnology, Santa Cruz, Calif.) or anti-GAPDH (Sigma). Appropriate secondary antibodies conjugated to HRP were applied, and blots were incubated with a chemiluminescent substrate (Pierce) and exposed to Kodak X-Omat Blue Film (Kodak, Rochester, N.Y.). Mouse or rabbit IgG was used in lieu of the primary antibody to ensure specificity in control experiments.
# To test determine if the inhibition of GCase would elicit changes in cellular α-synuclein level, the protein levels were evaluated by using Western blot analysis in non-differentiated SH-SY5Y cells and cells differentiated to the neuronal phenotype, at 48 h following exposure to CBE. […] In order to determine whether increased levels of the protein were due to enhanced transcription, RT-PCR was performed to measure transcript levels in SH-SY5Y treated with CBE. […]
# [7] = test system: α-synuclein mRNA; conditions: astroglial cultures challenged with CBE; cited from earlier work
# [8] = test system: GFAP; test: GFAP immunohistochemistry (astroglial activation) in brain of CBE-treated mice; assay type: in vivo, C57BL/6 mice; conditions: single 200 mg/kg, 48 h
# Description: as §2, with “Brains were sectioned at 40-μm intervals and stored in cryopreservative solution at −20° C. until needed.” left out
# Substantia nigra-containing tissue sections were immunostained using an antibody for the astrocytic marker, glial fibrillary acidic protein (GFAP). […] Alternatively, it may be that upregulation is responsible for increased α-synuclein levels in astrocytes. α-synuclein has been detected in cultured human astrocytes, and its expression level is responsive to cytokine exposure (Tanji et al., 2001).
# [9] = test system: α-synuclein; test: α-synuclein immunohistochemistry in brain of CBE-treated mice; assay type: in vivo, C57BL/6 mice; conditions: single 200 mg/kg, 48 h
# Description: as §2, with “needed. […]” for “needed.”
# The effects of CBE exposure on α-synuclein within the ventral mesencephalon were also assessed histologically with immunohistochemistry. […]
# [10] = test system: α-synuclein mRNA; test: RT-PCR of α-synuclein mRNA in SH-SY5Y cells treated with CBE; assay type: cell-based, human
# Description: […] The cDNAs were prepared by reverse transcription (Superscript III; Invitrogen). PCR was performed using the ABI PRISM 7000 Sequence Detection System and primers. The cycle number at which each PCR reaction reached a significant threshold (CT) during the log phase of the amplification was used as a relative measure of transcript expression. The CT of the α-synuclein gene was calibrated against that of the reference gene […].
# To test determine if the inhibition of GCase would elicit changes in cellular α-synuclein level, the protein levels were evaluated by using Western blot analysis in non-differentiated SH-SY5Y cells and cells differentiated to the neuronal phenotype, at 48 h following exposure to CBE. […] In order to determine whether increased levels of the protein were due to enhanced transcription, RT-PCR was performed to measure transcript levels in SH-SY5Y treated with CBE. […] These findings indicate that increased α-synuclein levels observed following CBE exposure are not due to enhanced expression (FIG. 3b).
structure (smiles),measurement,setting,value
"O[C@H]1[C@H](O)[C@@H](O)[C@@H]2O[C@@H]2[C@@H]1O (racemic) [CBE, Conduritol B epoxide]",α-synuclein protein levels (Western blot),[1],No change in α-synuclein was detected
same,higher molecular forms of α-synuclein (SDS-stable aggregates),[2],No immunoreactivity for higher molecular forms of α-synuclein
same,"α-synuclein levels in P1 (particulate) fraction, monomeric 19 kDa band","[2]; CBE vs. DMSO, 200 mg/kg",Denser α-synuclein-positive bands; also recorded: levels of α-synuclein were increased in the particulate fraction; also recorded: an increase in α-synuclein levels
same,α-synuclein levels in S1 (supernatant) fraction,"[2]; CBE vs. DMSO, 200 mg/kg",no alteration; also recorded: no change
same,α-synuclein expression within substantia nigra,[3],Increased α-synuclein expression
same,overt toxicity within cells,[4],no overt toxicity
same,silver grains in nigral neurons (degenerating neurons),[5],Accumulation of silver grains in nigral neurons
same,immunoreactivity for α-synuclein in tissue culture,[6]; CBE-exposed neuroblastoma cells differentiated to neuronal phenotype,increased immunoreactivity for α-synuclein
same,CBE concentrations at which increased α-synuclein levels were seen,"[6]; differentiated SH-SY5Y cells, 48 h, Western blot",50 to 200 µM
same,dose at which increased α-synuclein protein levels peak,"[6]; differentiated SH-SY5Y cells, 48 h, doses 0-200 μM tested",50 µM
same,α-synuclein protein levels (Western blot),"[6]; differentiated SH-SY5Y cells, 48 h exposure, CBE vs. vehicle",increased levels of α-synuclein protein were observed
same,expression of α-synuclein mRNA,[7],enhanced expression of α-synuclein mRNA
same,α-synuclein within astrocytes of substantia nigra (dual-label immunofluorescence),[8],enhanced α-synuclein was also detected within activated astrocytes; also recorded: colocalization of α-synuclein immunoreactivity was observed within astrocytes
same,GFAP immunoreactivity / astroglial activation in substantia nigra,[8]; CBE vs. vehicle,"astroglial activation, as observed by GFAP immunoreactivity, was apparent; also recorded: apparent increase; also recorded: Glial activation was robust"
same,"α-synuclein in other brain regions (cortex, hippocampus)",[9],No obvious changes in α-synuclein; also recorded: No alteration in protein levels
same,α-synuclein immunoreactivity in substantia nigra neurons,[9]; CBE vs. vehicle,robust immunoreactivity was observed within the cell bodies; also recorded: enhanced immunoreactivity for α-synuclein was detected within the cytoplasm and cell nuclei; also recorded: accumulation of the protein within neuronal cell bodies; also recorded: apparent increase; also recorded: accumulation of α-synuclein (FITC) within cell bodies and processes
same,α-synuclein gene expression (RT-PCR),"[10]; SH-SY5Y, any dose tested, 24 h following CBE treatment",No change in α-synuclein gene expression was detected
same,"α-synuclein transcription (mRNA, RT-PCR)","[10]; differentiated SH-SY5Y, increasing concentrations of CBE, (FIG. 3B legend)",No change in α-synuclein transcription was detected
